Source: US11008301B2, “Piperidinone formyl peptide 2 receptor agonists” (BRISTOL-MYERS SQUIBB COMPANY, priority 2017, dated 2021)
“And” between values parts separate entries of the source, which are not always exact repeats. Equal values may be shown once.

target: human FPR2 (Homo sapiens (Human), UniProt P25090); test: FPR2 cyclic adenosine monophosphate (cAMP) assay; format: cell-based; conditions: CHO cells overexpressing human FPR2; cAMP assay; read-out: hFPR2 agonist activity EC50 (hFPR2 Assay)
Sequence (P25090 whole entry): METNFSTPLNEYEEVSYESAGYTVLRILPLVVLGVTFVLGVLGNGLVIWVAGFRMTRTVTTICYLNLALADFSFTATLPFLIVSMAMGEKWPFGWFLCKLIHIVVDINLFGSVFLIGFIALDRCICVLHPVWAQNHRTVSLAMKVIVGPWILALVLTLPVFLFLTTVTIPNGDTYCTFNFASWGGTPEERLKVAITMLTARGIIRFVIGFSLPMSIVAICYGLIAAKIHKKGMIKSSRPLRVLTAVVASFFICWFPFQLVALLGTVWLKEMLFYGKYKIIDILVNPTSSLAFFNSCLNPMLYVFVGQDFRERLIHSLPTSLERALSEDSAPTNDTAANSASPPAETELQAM
Description: FPR2 and FPR1 Cyclic Adenosine Monophosphate (cAMP) Assays. A mixture of forskolin (5 μM final for FPR2 or 10 μM final for FPR1) and IBMX (200 μM final) were added to 384-well Proxiplates (Perkin-Elmer) pre-dotted with test compounds in DMSO (1% final) at final concentrations in the range of 1.7 nM to 100 μM. Chinese Hamster Ovary cells (CHO) overexpressing human FPR1 or human FPR2 receptors were cultured in F-12 (Ham's) medium supplemented with 10% qualified FBS, 250 μg/ml zeocin and 300 μg/ml hygromycin (Life Technologies). Reactions were initiated by adding 2,000 human FPR2 cells per well or 4,000 human FPR1 cells per well in Dulbecco's PBS (with calcium and magnesium) (Life Technologies) supplemented with 0.1% BSA (Perkin-Elmer). The reaction mixtures were incubated for 30 min at room temperature. The level of intracellular cAMP was determined using the HTRF HiRange cAMP assay reagent kit (Cisbio) according to manufacturer's instruction. Solutions of cryptate conjugated anti-cAMP and d2 flurorophore-labelled cAMP were made in a supplied lysis buffer separately. Upon completion of the reaction, the cells were lysed with equal volume of the d2-cAMP solution and anti-cAMP solution. After a 1-h room temperature incubation, time-resolved fluorescence intensity was measured using the Envision (Perkin-Elmer) at 400 nm excitation and dual emission at 590 nm and 665 nm. A calibration curve was constructed with an external cAMP standard at concentrations ranging from 1 μM to 0.1 pM by plotting the fluorescent intensity ratio from 665 nm emission to the intensity from the 590 nm emission against cAMP concentrations. The potency and activity of a compound to inhibit cAMP production was then determined by fitting to a 4-parametric logistic equation from a plot of cAMP level versus compound concentrations.

EC50 | SMILES
10 to 100 nM | CC1CCN(c2ccc(N3CCC[C@@H](NC(=O)Nc4ccc(C(F)(F)F)cc4)C3=O)cn2)CC1 [Example 59]
10 to 100 nM | O=C(Nc1ccc(C(F)(F)F)cc1)N[C@@H]1CCCN(c2ccc(N3CCCC(O)C3)nc2)C1=O (some centres unmarked) [Example 60]
10 to 100 nM | O=C(Nc1ccc(C(F)(F)F)cc1)N[C@@H]1CCCN(c2ccc(N3CCN(CCO)CC3)nc2)C1=O [Example 61]
100 to 1000 nM | O=C(Nc1ccc(C(F)(F)F)nc1)N[C@@H]1CCCN(c2ccc(N3[C@@H]4CC[C@H]3COC4)nc2)C1=O [Example 62]
100 to 1000 nM | COC[C@@H]1CCCN1c1ccc(N2CCC[C@@H](NC(=O)Nc3ccc(C(F)(F)F)cn3)C2=O)cn1 [Example 63]
100 to 1000 nM | O=C(Nc1ccc(C(F)(F)F)cc1)N[C@@H]1CCCN(c2ccc(N3CCCC(CO)C3)nc2)C1=O (some centres unmarked) [Example 64]
≤ 10 nM | COCC1CCCN1c1ccc(N2CCC[C@@H](NC(=O)Nc3ccc(C(F)(F)F)cc3)C2=O)cc1 (some centres unmarked) [Example 66]
≤ 10 nM and 10 to 100 nM | O=C(Nc1cnc(C(F)(F)F)cn1)N[C@@H]1CCCN(c2ccc(N3CCC(F)(F)C3)cc2)C1=O [Example 67]
≤ 10 nM | O=C(Nc1ccc(C(F)(F)F)cc1)N[C@@H]1CCCN(c2ccc(N3CCC(F)(F)C3)cc2)C1=O [Example 68]
≤ 10 nM | COCC1CCCCN1c1ccc(N2CCC[C@@H](NC(=O)Nc3cnc(C(F)(F)F)cn3)C2=O)c(F)c1 (some centres unmarked) [Example 71]
≤ 10 nM | O=C(Nc1ccc(C(F)(F)F)cc1)N[C@@H]1CCCN(c2ccc(N3CCCC(C(F)(F)F)C3)cc2)C1=O (some centres unmarked) [Example 72]
≤ 10 nM | O=C(Nc1ccc(C(F)(F)F)cc1)N[C@@H]1CCCN(c2ccc(N3CCC(CO)C3)cc2)C1=O (some centres unmarked) [Example 73]
≤ 10 nM | O=C(Nc1ccc(C(F)(F)F)cc1)N[C@@H]1CCCN(c2ccc(N3CC(O)C(F)C3)cc2)C1=O (some centres unmarked) [Example 74]
≤ 10 nM | CN(C)C1CCN(c2ccc(N3CCC[C@@H](NC(=O)Nc4ccc(Cl)cc4)C3=O)c(F)c2F)C1 (some centres unmarked) [Example 75]
≤ 10 nM | COC1CCN(c2ccc(N3CCC[C@@H](NC(=O)Nc4ccc(Cl)cc4)C3=O)cc2)C1 (some centres unmarked) [Example 76]
≤ 10 nM | O=C(Nc1ccc(Cl)cc1)N[C@@H]1CCCN(c2ccc(N3CCCC(CO)C3)cc2)C1=O (some centres unmarked) [Example 78]
≤ 10 nM | CN(C)C1CN(c2ccc(N3CCC[C@@H](NC(=O)Nc4ccc(C(F)(F)F)cc4)C3=O)cc2)CC1O (some centres unmarked) [Example 79]
≤ 10 nM | O=C(Nc1ccc(Cl)cc1F)N[C@@H]1CCCN(c2ccc(N3CCCCC3=O)c(F)c2F)C1=O [Example 80]
≤ 10 nM | O=C(Nc1ccc(Cl)cc1F)N[C@@H]1CCCN(c2ccc(N3CC[C@@H](F)C3)cc2)C1=O [Example 82]
≤ 10 nM | CN(C)C1CN(c2ccc(N3CCC[C@@H](NC(=O)Nc4ccc(C(F)(F)F)cc4)C3=O)cc2)CC1F (some centres unmarked) [Example 84]
≤ 10 nM | CN(CC(F)(F)F)C1CCN(c2ccc(N3CCC[C@@H](NC(=O)Nc4ccc(Cl)cc4)C3=O)c(F)c2F)C1 (some centres unmarked) [Example 85]

Second part, the compound before the results:

SMILES | EC50
O=C(Nc1ccc(C(F)(F)F)cc1)N[C@@H]1CCCN(c2ccc(N3CC[C@@H](O)C3)cc2)C1=O [Example 1, 1-(1-(4-((R)-3-Hydroxypyrrolidin-1-yl)phenyl)-2-oxopiperidin-3-yl)-3-(4-(trifluoromethyl)phenyl)urea] | ≤ 10 nM
O=C(Nc1ccc(C(F)(F)F)cc1)N[C@@H]1CCCN(c2ccc(N3CCCC3=O)cc2)C1=O [Example 2] | 10 to 100 nM
O=C(Nc1ccc(C(F)(F)F)cc1)N[C@@H]1CCCN(c2ccc(N3CC[C@H](O)C3)cc2)C1=O [Example 3] | 10 to 100 nM
O=C(Nc1ccc(C(F)(F)F)cc1)N[C@@H]1CCCN(c2ccc(N3C[C@H]4CC[C@@H](C3)O4)cc2)C1=O [Example 5] | ≤ 10 nM
O=C(Nc1ccc(Cl)nc1)N[C@@H]1CCCN(c2ccc(N3CC[C@@H](O)C3)cc2)C1=O [Example 6] | 10 to 100 nM
C[C@@H]1COCCN1c1ccc(N2CCC[C@@H](NC(=O)Nc3ccc(C(F)(F)F)nc3)C2=O)cc1 [Example 7] | 10 to 100 nM
C[C@H]1COCCN1c1ccc(N2CCC[C@@H](NC(=O)Nc3ccc(C(F)(F)F)nc3)C2=O)cc1 [Example 8] | 100 to 1000 nM
O=C(Nc1ccc(C(F)(F)F)cc1)N[C@@H]1CCCN(c2ccc(N3CC4(COC4)C3)cc2)C1=O [Example 10] | 10 to 100 nM
COCC1COCCN1c1ccc(N2CCC[C@@H](NC(=O)Nc3ccc(C(F)(F)F)cc3)C2=O)cc1 (some centres unmarked) [Example 13] | ≤ 10 nM
COCC1CCCCN1c1ccc(N2CCC[C@@H](NC(=O)Nc3ccc(C(F)(F)F)nc3)C2=O)cc1 (some centres unmarked) [Example 16] | 10 to 100 nM
COCC1COCCN1c1ccc(N2CCC[C@@H](NC(=O)Nc3ccc(C(F)(F)F)cc3)C2=O)cc1 (some centres unmarked) [Example 21] | ≤ 10 nM
COCC1COCCN1c1ccc(N2CCC[C@@H](NC(=O)Nc3ccc(C(F)(F)F)nc3)C2=O)cc1 (some centres unmarked) [Example 22] | 100 to 1000 nM
COC[C@@H]1CCCN1c1ccc(N2CCC[C@@H](NC(=O)Nc3ccc(C(F)(F)F)cn3)C2=O)cc1 [Example 24] | 100 to 1000 nM
COC[C@@H]1CCCN1c1ccc(N2CCC[C@@H](NC(=O)Nc3ccc(C(F)(F)F)nc3)C2=O)cc1 [Example 25] | 10 to 100 nM
COC[C@@H]1CCCN1c1ccc(N2CCC[C@@H](NC(=O)Nc3ccc(C(F)(F)F)cc3)C2=O)cc1 [Example 27] | 10 to 100 nM
O=C(Nc1ccc(C(F)(F)F)cn1)N[C@@H]1CCCN(c2ccc(N3CC[C@@H](O)C3)cc2)C1=O [Example 28] | 100 to 1000 nM
CC(=O)N1CCN(c2ccc(N3CCC[C@@H](NC(=O)Nc4ccc(C(F)(F)F)cc4)C3=O)cc2)CC1 [Example 29] | 100 to 1000 nM
COC1CCN(c2ccc(N3CCC[C@@H](NC(=O)Nc4ccc(C(F)(F)F)cc4)C3=O)cc2)CC1 [Example 30] | ≤ 10 nM
O=C(Nc1ccc(C(F)(F)F)cc1)N[C@@H]1CCCN(c2ccc(N3CCCC(O)C3)cc2)C1=O (some centres unmarked) [Example 31] | 10 to 100 nM
O=C(Nc1ccc(C(F)(F)F)cc1)N[C@H]1CCCN(c2ccc(N3CCCC(O)C3)cc2)C1=O (some centres unmarked) [Example 32] | 100 to 1000 nM
CC(C)N1CCN(c2ccc(N3CCC[C@@H](NC(=O)Nc4ccc(C(F)(F)F)cc4)C3=O)cc2)CC1 [Example 33] | 10 to 100 nM

SMILES | EC50
C[C@@H]1COCCN1c1ccc(N2CCC[C@@H](NC(=O)Nc3ccc(C(F)(F)F)cc3)C2=O)cc1 [Example 35] | ≤ 10 nM
COc1ccc(NC(=O)N[C@@H]2CCCN(c3ccc(N4CCOC[C@H]4C)cc3)C2=O)cc1 [Example 36] | 10 to 100 nM
C[C@H]1COCCN1c1ccc(N2CCC[C@@H](NC(=O)Nc3ccc(C(F)(F)F)cc3)C2=O)cc1 [Example 37] | 10 to 100 nM
CC1CCCN(c2ccc(N3CCC[C@@H](NC(=O)Nc4ccc(C(F)(F)F)cc4)C3=O)cc2)C1 (some centres unmarked) [Example 38] | ≤ 10 nM
CC(C)[C@@H]1COCCN1c1ccc(N2CCC[C@@H](NC(=O)Nc3ccc(C(F)(F)F)cc3)C2=O)cc1 [Example 39] | ≤ 10 nM
CC1(C)CCN(c2ccc(N3CCC[C@@H](NC(=O)Nc4ccc(C(F)(F)F)cc4)C3=O)cc2)CC1 [Example 40] | 10 to 100 nM
CC1CCN(c2ccc(N3CCC[C@@H](NC(=O)Nc4ccc(C(F)(F)F)cc4)C3=O)cc2)CC1 [Example 41] | 10 to 100 nM
CCN1CCN(c2ccc(N3CCC[C@@H](NC(=O)Nc4ccc(C(F)(F)F)cc4)C3=O)cc2)CC1 [Example 42] | 10 to 100 nM
C[C@@H]1CN(c2ccc(N3CCC[C@@H](NC(=O)Nc4ccc(C(F)(F)F)cc4)C3=O)cc2)C[C@H](C)O1 [Example 43] | 10 to 100 nM
CN1CCN(c2ccc(N3CCC[C@@H](NC(=O)Nc4ccc(C(F)(F)F)cc4)C3=O)cc2)CC1 [Example 44] | 10 to 100 nM
O=C(Nc1ccc(C(F)(F)F)cc1)N[C@@H]1CCCN(c2ccc(N3CCOCC3)cc2)C1=O [Example 46] | ≤ 10 nM
O=C(Nc1ccc(C(F)(F)F)nc1)N[C@@H]1CCCN(c2ccc(N3C[C@H]4CC[C@@H](C3)O4)cc2)C1=O [Example 47] | 100 to 1000 nM
C[C@@H]1COCCN1c1ccc(N2CCC[C@@H](NC(=O)Nc3ccc(C(F)(F)F)cn3)C2=O)cc1 [Example 48] | 100 to 1000 nM
O=C(Nc1ccc(C(F)(F)F)cn1)N[C@@H]1CCCN(c2ccc(N3CCCCC3=O)cc2)C1=O [Example 49] | 100 to 1000 nM
O=C(Nc1ccc(C(F)(F)F)cn1)N[C@@H]1CCCN(c2ccc(N3CCCCC3=O)cc2F)C1=O [Example 51] | 100 to 1000 nM
O=C(Nc1ccc(C(F)(F)F)cc1)N[C@@H]1CCCN(c2ccc(N3CCCCC3=O)cc2F)C1=O [Example 52] | 10 to 100 nM
O=C(Nc1ccc(C(F)(F)F)cc1)N[C@@H]1CCCN(c2ccc(N3CCOCC3)cc2F)C1=O [Example 53] | 10 to 100 nM
O=C(Nc1ccc(C(F)(F)F)cc1)N[C@@H]1CCCN(c2ccc(N3CC[C@@H](O)C3)nc2)C1=O [Example 55] | 10 to 100 nM
O=C(Nc1ccc(C(F)(F)F)cc1)N[C@@H]1CCCN(c2ccc(N3CCCC(F)C3)nc2)C1=O (some centres unmarked) [Example 57] | 10 to 100 nM
COC1CCN(c2ccc(N3CCC[C@@H](NC(=O)Nc4ccc(C(F)(F)F)cc4)C3=O)cn2)CC1 [Example 58] | 10 to 100 nM
